What was measured:
Schistosoma mansoni [1] = assay: Antischistosomal activity against Schistosoma mansoni NTS assessed as worm mortality at 10 uM measured up to 72 hrs by microscopic method relative to control; format: functional; details: time hrs <=72
Schistosoma mansoni [2] = assay: Antischistosomal activity against adult Schistosoma mansoni assessed as worm mortality at 10 uM measured up to 72 hrs by microscopic method relative to control; format: functional; details: time hrs <=72
Schistosoma mansoni [3] = assay: Antischistosomal activity against adult Schistosoma mansoni measured up to 72 hrs by microscopic method; format: functional, organism-based
Schistosoma mansoni [4] = assay: Antischistosomal activity against Schistosoma mansoni infected in NMRI mouse assessed as reduction in total worm burden at 400 mg/kg, po measured after 21 days relative to control; format: functional; parameters: scale not given: the % may be the effect or the level left; details: time 21 day
Schistosoma mansoni [5] = assay: Antischistosomal activity against Schistosoma mansoni infected in NMRI mouse assessed as reduction in female worm burden at 400 mg/kg, po measured after 21 days relative to control; format: functional; parameters: scale not given: the % may be the effect or the level left; details: time 21 day
Schistosoma mansoni [6] = assay: Antischistosomal activity against Schistosoma mansoni assessed as worm killing effect at 100 uM measured after 24 hrs by phase-contrast microscopy relative to control; format: functional
Schistosoma mansoni [7] = assay: Antischistosomal activity against male Schistosoma mansoni assessed as worm killing effect at 100 uM measured after 24 hrs by phase-contrast microscopy relative to control; format: functional
Schistosoma mansoni [8] = assay: Antischistosomal activity against female Schistosoma mansoni assessed as worm killing effect at 100 uM measured after 24 hrs by phase-contrast microscopy relative to control; format: functional
Schistosoma mansoni [9] = assay: Antischistosomal activity against Schistosoma mansoni infected in Swiss albino mouse assessed as reduction in worm burden at 20 mg/kg, po administered for 5 days relative to control; format: functional; parameters: scale not given: the % may be the effect or the level left; details: time 5 day
Schistosoma mansoni [10] = assay: Antischistosomal activity against Schistosoma mansoni infected in Swiss albino mouse assessed as reduction in intestinal tissue egg burden at 20 mg/kg, po administered for 5 days relative to control; format: functional; parameters: scale not given: the % may be the effect or the level left; details: time 5 day
Schistosoma mansoni [11] = assay: Potentiation of praziquantel-induced antischistosomal activity against Schistosoma mansoni infected in Swiss albino mouse assessed as worm burden at 20 mg/kg, po administered for 5 days (reference value: 60%); format: functional; details: time 5 day
Schistosoma mansoni [12] = assay: Potentiation of praziquantel-induced antischistosomal activity against Schistosoma mansoni infected in Swiss albino mouse assessed as intestinal egg burden at 20 mg/kg, po administered for 5 days (reference value: 67%); format: functional; details: time 5 day
Schistosoma mansoni [13] = assay: Antischistosomal activity against female Schistosoma mansoni Egyptian strain infected in BALB/c mouse assessed as reduction in worm burden at 200 mg/kg, po measured after 2 weeks; format: functional; parameters: scale not given: the % may be the effect or the level left
Schistosoma mansoni [14] = assay: Antischistosomal activity against female Schistosoma mansoni Egyptian strain infected in BALB/c mouse assessed as reduction in total worm burden at 200 mg/kg, po measured after 2 weeks by scanning electron microscopy; format: functional; parameters: scale not given: the % may be the effect or the level left
Schistosoma mansoni [15] = assay: Antischistosomal activity against female Schistosoma mansoni Egyptian strain infected in BALB/c mouse assessed as reduction in female worm burden at 300 mg/kg, po measured after 2 weeks by scanning electron microscopy relative to control; format: functional; parameters: scale not given: the % may be the effect or the level left
Schistosoma mansoni [16] = assay: Antischistosomal activity against female Schistosoma mansoni Egyptian strain infected in BALB/c mouse assessed as reduction in male worm burden at 300 mg/kg, po measured after 2 weeks by scanning electron microscopy relative to control; format: functional; parameters: scale not given: the % may be the effect or the level left
Schistosoma mansoni [17] = assay: Antischistosomal activity against female Schistosoma mansoni Egyptian strain infected in BALB/c mouse assessed as reduction in total worm burden at 300 mg/kg, po measured after 2 weeks by scanning electron microscopy relative to control; format: functional; parameters: scale not given: the % may be the effect or the level left
Schistosoma mansoni [18] = assay: Antischistosomal activity against Schistosoma mansoni LE infected in BALB/c mouse assessed as reduction in worm burden at 10 mg/kg, ip administered for 5 consecutive days starting from day 1 post infection by microscopic method relative to control; format: functional; parameters: scale not given: the % may be the effect or the level left
Schistosoma mansoni [19] = assay: Antischistosomal activity against Schistosoma mansoni LE infected in BALB/c mouse assessed as reduction in worm burden at 10 mg/kg, ip administered for 5 consecutive days starting from day 23 by microscopic method relative to control; format: functional; parameters: scale not given: the % may be the effect or the level left
Schistosoma mansoni [20] = assay: Antischistosomal activity against Schistosoma mansoni LE assessed as worm vitality at 20 uM incubated for 24 hrs by microscopic method relative to control; format: functional
Schistosoma mansoni [21] = assay: Antischistosomal activity against Schistosoma mansoni LE assessed as worm mortality at 20 uM incubated for 72 hrs by microscopic method relative to control; format: functional
Schistosoma mansoni [22] = assay: Antischistosomal activity against adult Schistosoma mansoni LE assessed as reduction in motor activity at 50 uM measured after 24 hrs by inverted microscopy relative to control; format: functional; parameters: scale not given: the % may be the effect or the level left
Schistosoma mansoni [23] = assay: Antischistosomal activity against adult Schistosoma mansoni LE assessed as reduction in motor activity at 10 uM measured after 24 hrs by inverted microscopy relative to control; format: functional; parameters: scale not given: the % may be the effect or the level left
Schistosoma mansoni [24] = assay: Antischistosomal activity against adult Schistosoma mansoni LE assessed as seperation of male and female worms at 10 uM measured after 24 hrs by inverted microscopy relative to control; format: functional
Schistosoma mansoni [25] = assay: Schistosomicidal-activity against Schistosoma mansoni infected in NIH-Swiss mouse assessed as reduction in skin staged worm burden at 10 mg/kg, ip administered daily for 5 consecutive days relative to control; format: functional; parameters: scale not given: the % may be the effect or the level left
Schistosoma mansoni [26] = assay: schistosomicidal-activity against Schistosoma mansoni infected in NIH-Swiss mouse assessed as reduction in liver-staged worm burden at 10 mg/kg, ip administered daily for 5 consecutive days relative to control; format: functional; parameters: scale not given: the % may be the effect or the level left
Schistosoma mansoni [27] = assay: schistosomicidal-activity against adult Schistosoma mansoni infected in NIH-Swiss mouse assessed as reduction in worm burden at 10 mg/kg, ip administered daily for 5 consecutive days relative to control; format: functional; parameters: scale not given: the % may be the effect or the level left; details: time 5 day
Schistosoma mansoni [28] = assay: Antischistosomal activity against Schistosoma mansoni LE larva at […] measured within 48 hrs by inverted microscopic method relative to control; format: functional; details: dose 2.5 µg/ml
Schistosoma mansoni [29] = assay: Antischistosomal activity against adult Schistosoma mansoni LE assessed as worm mortality at 100 ug/ml measured after 96 hrs by inverted microscopic method relative to control; format: functional
Schistosoma mansoni [30] = assay: Antischistosomal activity against adult Schistosoma mansoni LE assessed as worm mortality measured after 96 hrs by inverted microscopic method; format: functional, organism-based
Schistosoma mansoni [31] = assay: Antischistosomal activity against Schistosoma mansoni LE infected in BALb/C mouse assessed as reduction in worm burden at 400 mg/kg, po administered as single dose and measured after 15 days relative to control; format: functional; parameters: scale not given: the % may be the effect or the level left; details: time 15 day
Schistosoma mansoni [32] = assay: Antischistosomal activity against adult Schistosoma mansoni LE assessed as worm mortality at 100 ug/ml incubated for 72 hrs by inverted microscopic method relative to control; format: functional
Schistosoma mansoni [33] = assay: Antischistosomal activity against adult Schistosoma mansoni LE assessed as reduction in worm vitality measured every 24 hrs by inverted microscopy; format: functional, organism-based
Schistosoma mansoni [34] = assay: Antischistosomal activity against Schistosoma mansoni LE schistosomula assessed as reduction in worm vitality measured every 24 hrs by inverted microscopy; format: functional, organism-based
Schistosoma japonicum = assay: Antischistosomal activity against Schistosoma japonicum assessed as worm mortality at 5 ug/ml incubated for 72 hrs by microscopic method relative to control; format: functional; details: dose 5 µg/ml
Plasmodium falciparum [35] = assay: Antiplasmodial activity against Plasmodium falciparum 3D7 incubated for 72 hrs by SYBR Green1 by fluorometric assay; format: functional, organism-based; details: 3D7, 72 h
Plasmodium falciparum [36] = assay: Antiplasmodial activity against Plasmodium falciparum Dd2 incubated for 72 hrs by SYBR Green1 by fluorometric assay; format: functional, organism-based; details: Dd2, 72 h

CCNCCNc1cc(-c2ccc(Cl)cc2)c(C#N)c2nc3ccccc3n12
mortality at 10 µM (Schistosoma mansoni [1]): > 70%
mortality at 10 µM (Schistosoma mansoni [2]): > 60%
IC50 (Schistosoma mansoni [3]): 2440 nM
Activity (Schistosoma mansoni [4]): 58.7%
Activity (Schistosoma mansoni [5]): 61.3%

Brc1ccc(-c2c[nH]c(-c3ccccn3)n2)cc1
Activity (Schistosoma mansoni [6]): 56%
Activity (Schistosoma mansoni [7]): 100%
Activity (Schistosoma mansoni [8]): 0%
Activity (Schistosoma mansoni [9]): 29%
Activity (Schistosoma mansoni [10]): 35%
Activity (Schistosoma mansoni [11]): 96%
Activity (Schistosoma mansoni [12]): 83%

CC(C)Oc1ccc(-c2ccc(-c3nc4ccccc4[nH]3)s2)cc1
Activity (Schistosoma mansoni [13]): 66%
Activity (Schistosoma mansoni [14]): 44%
Activity (Schistosoma mansoni [15]): 76.5%
Activity (Schistosoma mansoni [16]): 34.6%
Activity (Schistosoma mansoni [17]): 55.3%
Activity (Schistosoma mansoni [18]): 34.6%
Activity (Schistosoma mansoni [19]): 55.3%

COc1cc(OC)c(/C=C2\NC(=O)N(Cc3c(F)cccc3Cl)C2=S)c(OC)c1
Activity (Schistosoma mansoni [20]): 100%
Activity (Schistosoma mansoni [21]): 100%

COc1cc(C[C@@H]2C(=O)OC[C@H]2Cc2cc(OC)c3c(c2)OCO3)cc(OC)c1OC
Activity (Schistosoma mansoni [22]): >75%
Activity (Schistosoma mansoni [23]): 100%
Activity (Schistosoma mansoni [24]): >85%

N#Cc1c(-c2ccccc2)no[n+]1[O-]
Activity (Schistosoma mansoni [25]): 99%
Activity (Schistosoma mansoni [26]): 88%
Activity (Schistosoma mansoni [27]): 94%

O=C1c2ccccc2C(=O)N1Nc1nc(-c2ccc(Cl)cc2Cl)cs1
mortality at […] (Schistosoma mansoni [28]): 100%
mortality at 100 µg/mL (Schistosoma mansoni [29]): 100%
EC50 (Schistosoma mansoni [30]): 50.6 µM
Activity (Schistosoma mansoni [31]): 85%

O=C1c2ccccc2C(=O)N1C/C=N/N=c1\[nH]c(-c2ccccc2)cs1
mortality at 100 µg/mL (Schistosoma mansoni [32]): 100%
EC50 (Schistosoma mansoni [33]): 37.5 µM
EC50 (Schistosoma mansoni [34]): 5.15 µM

CCCCNCC(O)Cn1c2ccc(Cl)cc2c2cc(Cl)ccc21 (configuration not stated)
Activity (Schistosoma japonicum): 100%
IC50 (Plasmodium falciparum [35]): 274 nM
IC50 (Plasmodium falciparum [36]): 47 nM

Reference: ChEMBL document CHEMBL4811216, “Chemotherapy for human schistosomiasis: how far have we come? What's new? Where do we go from here?” (RSC Med Chem, 2020)
